Measurements published in US7026333B1, “Retroviral protease inhibitors” (G. D. Searle & Co., priority 1999, dated 2006).

Assays:
CEM cells = assay: CEM cell assay, intrinsic toxicity of test compound without virus (MTT); format: cell-based; conditions: 7 days, concentration reducing cellular viability by 50%
Description: (§1) The effectiveness of the compounds tested in Part A was also determined in a CEM cell assay. The HIV inhibition assay method of acutely infected cells is an automated tetrazolium based colorimetric assay essentially that reported by Pauwles et al, J. Virol. Methods 20, 309–321 (1988). Assays were performed in 96-well tissue culture plates. CEM cells, a CD4 cell line, were grown in RPMI-1640 medium (Gibco) supplemented with a 10% fetal calf serum and were then treated with polybrene ([…]). An 80 μL volume of medium containing 1×10^4 cells was dispensed into each well of the tissue culture plate. To each well was added a 100 μL volume of test compound dissolved in tissue culture medium (or medium without test compound as a control) to achieve the desired final concentration and the cells were incubated at 37° C. for 1 hour. A frozen culture of HIV-1 was diluted in culture medium to a concentration of 5×10^4 TCID50 per mL (TCID50=the dose of virus that infects 50% of cells in tissue culture), and a 20 μL volume of the virus sample (containing 1000 TCID50 of virus) was added to wells containing test compound and to wells containing only medium (infected control cells). Several wells received culture medium without virus (uninfected control cells). Likewise, the intrinsic toxicity of the test compound was determined by adding medium without virus to several wells containing test compound. In summary, the tissue culture plates contained the following experiments:
In experiments 2 and 4, the final concentrations of test compounds were 1, 10, 100 and 500 μg/mL. Either azidothymidine (AZT) or dideoxyinosine (ddI) was included as a positive drug control. […] DMSO was added to all control wells at an appropriate concentration.
Following the addition of virus, cells were incubated at 37° C. in a humidified, 5% CO2 atmosphere for 7 days. Test compounds could be added on days 0, 2 and 5 if desired. On day 7, post-infection, the cells in each well were resuspended and a 100 μL sample of each cell suspension was removed for assay. A 20μL volume of a 5 mg/mL solution of 3-(4,5-dimethylthiazol-2-yl)-2,5-diphenyltetrazolium bromide (MTT) was added to each 100 μL cell suspension, and the cells were incubated for 4 hours at […] in a 5% CO2 environment. […] To each sample was added […] of 10% sodium dodecylsulfate in 0.01 N HCl to lyse the cells, and samples were incubated overnight. The absorbance at 590 nm was determined for each sample using a Molecular Devices microplate reader. Absorbance values for each set of wells is compared to assess viral control infection, uninfected control cell response as well as test compound by cytotoxicity and antiviral efficacy.
The calculated EC50 (effective concentration 50%, i.e., the concentration at which the inhibitor compound reduces cytopathicity by 50%) and TD50 (toxic dose 50%, i.e., the concentration at which the inhibitor compound reduces cellular viability by 50%) values for these compounds are also shown in Table 1.

HIV protease = molecular target: T1, HIV protease (Human immunodeficiency virus type 1 group M subtype B, UniProt P04585); assay: Enzyme assay (HIV protease, fluorogenic substrate 2-aminobenzoyl-Ile-Nle-Phe(p-NO2)-Gln-ArgNH2); format: biochemical; conditions: HIV protease 12.3 nanomolar, substrate 80 μM, pH 6.4; read-out: Enzyme Inhibition (IC50)
T1 construct: HIV protease is diluted in the assay buffer to a final enzyme concentration of 12.3 nanomolar, based on a molecular weight of 10,780
Description: The calculated IC50 (inhibiting concentration 50%, i.e., the concentrations at which the inhibitor compound reduces enzyme activity by 50%) values are shown in Table 1. The enzyme method is described below. The substrate is 2-aminobenzoyl-Ile-Nle-Phe(p-NO2)-Gln-ArgNH2. The positive control is MVT-101 (Miller, M. et al, Science, 246, 1149 (1989)] The assay conditions are as follows:
Assay buffer: 20 mM sodium phosphate, pH 6.4
• 20% glycerol • 1 mM EDTA • 1 mM DTT • 0.1% CHAPS
The above described substrate is dissolved in DMSO, then diluted 10 fold in assay buffer. Final substrate concentration in the assay is 80 μM.
HIV protease is diluted in the assay buffer to a final enzyme concentration of 12.3 nanomolar, based on a molecular weight of 10,780.
The final concentration of DMSO is 14% and the final concentration of glycerol is 18%. The test compound is dissolved in DMSO and diluted in DMSO to 10× the test concentration; 10 μL of the enzyme preparation is added, the materials mixed and then the mixture is incubated at ambient temperature for 15 minutes. The enzyme reaction is initiated by the addition of 40 μL of substrate. The increase in fluorescence is monitored at 4 time points (0, 8, 16 and 24 minutes) at ambient temperature. Each assay is carried out in duplicate wells.

HIV-1 = assay: CEM cell assay, HIV inhibition in acutely infected cells (MTT); format: cell-based; conditions: Human immunodeficiency virus 1, CCRF-CEM, 168 h; CEM cells acutely infected with HIV-1, 7 days; concentration reducing cytopathicity by 50%; read-out: Antiviral Activity in Cell Culture (EC50)
Description: as §1, with “A frozen culture of HIV-1 was diluted in culture medium to a concentration of 5×10^4 TCID50 per mL (TCID50=the dose of virus that infects 50% of cells in tissue culture), and a 20 μL volume of the virus sample (containing 1000 TCID50 of virus) was added to wells containing test compound and to wells containing only medium (infected control cells). Several wells received culture medium without virus (uninfected control cells).” left out, “In summary, the tissue culture plates contained the following experiments:” left out
Following the addition of virus, cells were incubated at 37° C. in a humidified, 5% CO2 atmosphere for 7 days. […] The absorbance at 590 nm was determined for each sample using a Molecular Devices microplate reader. Absorbance values for each set of wells is compared to assess viral control infection, uninfected control cell response as well as test compound by cytotoxicity and antiviral efficacy. […]

| SMILES | Cell Toxicity (TD50) (CEM cells) | IC50 (HIV protease) | EC50 (HIV-1) |
| --- | --- | --- | --- |
| C[C@H](CS(C)(=O)=O)C(=O)N[C@@H](Cc1ccccc1)[C@H](O)CN1C[C@H]2CCCC[C@H]2C[C@H]1C(=O)NC(C)(C)C | 58,000 nM | – | – |
| COc1ccc(COC(=O)NC[C@@H](C)C(=O)N[C@@H](Cc2ccccc2)[C@H](O)CN2C[C@H]3CCCC[C@H]3C[C@H]2C(=O)NC(C)(C)C)cc1 | 2,000 nM | – | – |
| CC(C)(C)NC(=O)[C@@H]1C[C@@H]2CCCC[C@@H]2CN1C[C@@H](O)[C@H](Cc1ccccc1)NC(=O)C[C@H](NC(=O)c1ccc2ccccc2n1)C(N)=O | 5,000 nM | – | – |
| C[C@@H](C(=O)N[C@@H](Cc1ccccc1)[C@H](O)CN1C[C@H]2CCCC[C@H]2C[C@H]1C(=O)NC(C)(C)C)C(C)(C)C(N)=O | 59,000 nM | 9 nM | 98 nM |
| C[C@@H](C(=O)N[C@@H](Cc1ccccc1)[C@H](O)CN1C[C@H]2CCCC[C@H]2C[C@H]1C(=O)NC(C)(C)C)C(C)(C)C(=O)O | 50,000 nM | – | – |
